From PubChem BioAssay (NCI)
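GI50 marks 50% less growth. Definition used: TGI = concentration required for complete inhibition of growth.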

What was measured:
Test in all cases: growth of human tumour cells (NCI), 384-well format
OVCAR-8 ovarian = test system: OVCAR-8 ovarian
HOP-62 NSCLC = test system: HOP-62 NSCLC
NCI-H522 lung = test system: NCI-H522 lung
DU-145 prostate = test system: DU-145 prostate
T-47D breast = test system: T-47D breast
SF-268 CNS = test system: SF-268 CNS
SNB-75 CNS = test system: SNB-75 CNS
MALME-3M melanoma = test system: MALME-3M melanoma
BT-549 breast = test system: BT-549 breast
HCT-116 colon = test system: HCT-116 colon
RPMI-8226 leukemia = test system: RPMI-8226 leukemia
SK-MEL-5 melanoma = test system: SK-MEL-5 melanoma
OVCAR-5 ovarian = test system: OVCAR-5 ovarian
UO-31 renal = test system: UO-31 renal
SW-620 colon = test system: SW-620 colon
EKVX NSCLC = test system: EKVX NSCLC
786-0 renal = test system: 786-0 renal
A498 renal = test system: A498 renal
HT29 colon = test system: HT29 colon
MOLT-4 leukemia = test system: MOLT-4 leukemia
NCI-H226 lung = test system: NCI-H226 lung
SNB-19 CNS = test system: SNB-19 CNS
NCI-H322M lung = test system: NCI-H322M lung
NCI-H460 NSCLC = test system: NCI-H460 NSCLC
HS 578T breast = test system: HS 578T breast
NCI/ADR-RES ovarian = test system: NCI/ADR-RES ovarian
SF-539 CNS = test system: SF-539 CNS
ACHN renal = test system: ACHN renal
MCF7 breast = test system: MCF7 breast
CAKI-1 renal = test system: CAKI-1 renal
RXF 393 renal = test system: RXF 393 renal
MDA-MB-435 melanoma = test system: MDA-MB-435 melanoma
HL-60(TB) leukemia = test system: HL-60(TB) leukemia
NCI-H23 lung = test system: NCI-H23 lung
SK-OV-3 ovarian = test system: SK-OV-3 ovarian
TK-10 renal = test system: TK-10 renal
K-562 leukemia = test system: K-562 leukemia
OVCAR-3 ovarian = test system: OVCAR-3 ovarian
KM12 colon = test system: KM12 colon
IGROV1 ovarian = test system: IGROV1 ovarian
M14 melanoma = test system: M14 melanoma
U251 glioblastoma = test system: U251 glioblastoma
HCT-15 colon = test system: HCT-15 colon
SK-MEL-28 melanoma = test system: SK-MEL-28 melanoma
LOX IMVI melanoma = test system: LOX IMVI melanoma
MDA-MB-231 breast = test system: MDA-MB-231 breast
CCRF-CEM leukemia = test system: CCRF-CEM leukemia
MDA-MB-468 breast = test system: MDA-MB-468 breast
COLO 205 colon = test system: COLO 205 colon
PC-3 prostate = test system: PC-3 prostate
HCC-2998 colon = test system: HCC-2998 colon
SF-295 CNS = test system: SF-295 CNS
HOP-92 NSCLC = test system: HOP-92 NSCLC
SR leukemia = test system: SR leukemia
OVCAR-4 ovarian = test system: OVCAR-4 ovarian
SN12C renal = test system: SN12C renal
A549 NSCLC = test system: A549 NSCLC
UACC-257 melanoma = test system: UACC-257 melanoma

CN1CCC(CNc2ccc3ncc(-c4cccc(OC(F)(F)F)c4)n3n2)CC1
GI50 (OVCAR-8 ovarian): 1.61 µM
TGI (OVCAR-8 ovarian): 2.99 µM
GI50 (HOP-62 NSCLC): 1.62 µM
TGI (HOP-62 NSCLC): 3 µM
GI50 (NCI-H522 lung): 1.56 µM
TGI (NCI-H522 lung): 2.9 µM
GI50 (DU-145 prostate): 2.05 µM
TGI (DU-145 prostate): 4.51 µM
GI50 (T-47D breast): 1.77 µM
TGI (T-47D breast): 3.17 µM
GI50 (SF-268 CNS): 1.65 µM
TGI (SF-268 CNS): 3.04 µM
GI50 (SNB-75 CNS): 1.5 µM
TGI (SNB-75 CNS): 2.86 µM
GI50 (MALME-3M melanoma): 1.56 µM
TGI (MALME-3M melanoma): 2.91 µM
GI50 (BT-549 breast): 1.4 µM
TGI (BT-549 breast): 2.71 µM
GI50 (HCT-116 colon): 1.59 µM
TGI (HCT-116 colon): 2.98 µM
GI50 (RPMI-8226 leukemia): 1.37 µM
TGI (RPMI-8226 leukemia): 2.67 µM
GI50 (SK-MEL-5 melanoma): 1.12 µM
TGI (SK-MEL-5 melanoma): 2.33 µM
GI50 (OVCAR-5 ovarian): 1.61 µM
TGI (OVCAR-5 ovarian): 3.21 µM
GI50 (UO-31 renal): 1.66 µM
TGI (UO-31 renal): 3.04 µM
GI50 (SW-620 colon): 1.6 µM
TGI (SW-620 colon): 2.98 µM
GI50 (EKVX NSCLC): 1.48 µM
TGI (EKVX NSCLC): 2.9 µM
GI50 ([…]-0 renal): 1.66 µM
TGI (786-0 renal): 3.05 µM
GI50 (A498 renal): 1.42 µM
TGI (A498 renal): 2.73 µM
GI50 (HT29 colon): 1.66 µM
TGI (HT29 colon): 3.09 µM
GI50 (MOLT-4 leukemia): 1.31 µM
TGI (MOLT-4 leukemia): 2.59 µM
GI50 (NCI-H226 lung): 1.48 µM
TGI (NCI-H226 lung): 2.82 µM
GI50 (SNB-19 CNS): 1.74 µM
TGI (SNB-19 CNS): 3.17 µM
GI50 (NCI-H322M lung): 1.92 µM
TGI (NCI-H322M lung): 3.8 µM
GI50 (NCI-H460 NSCLC): 1.71 µM
TGI (NCI-H460 NSCLC): 3.15 µM
GI50 (HS 578T breast): 1.59 µM
TGI (HS 578T breast): 2.95 µM
GI50 (NCI/ADR-RES ovarian): 1.62 µM
TGI (NCI/ADR-RES ovarian): 3.02 µM
GI50 (SF-539 CNS): 1.53 µM
TGI (SF-539 CNS): 2.87 µM
GI50 (ACHN renal): 1.59 µM
TGI (ACHN renal): 2.96 µM
GI50 (MCF7 breast): 1.45 µM
TGI (MCF7 breast): 2.8 µM
GI50 (CAKI-1 renal): 1.38 µM
TGI (CAKI-1 renal): 2.71 µM
GI50 (RXF 393 renal): 1.35 µM
TGI (RXF 393 renal): 2.64 µM
GI50 (MDA-MB-435 melanoma): 1.71 µM
TGI (MDA-MB-435 melanoma): 3.1 µM
GI50 (HL-60(TB) leukemia): 1.25 µM
TGI (HL-60(TB) leukemia): 2.53 µM
GI50 (NCI-H23 lung): 1.54 µM
TGI (NCI-H23 lung): 2.94 µM
GI50 (SK-OV-3 ovarian): 1.67 µM
TGI (SK-OV-3 ovarian): 3.05 µM
GI50 (TK-10 renal): 1.7 µM
TGI (TK-10 renal): 3.11 µM
GI50 (K-562 leukemia): 1.63 µM
TGI (K-562 leukemia): 3.04 µM
GI50 (OVCAR-3 ovarian): 1.62 µM
TGI (OVCAR-3 ovarian): 3.01 µM
GI50 (KM12 colon): 0.375 µM
TGI (KM12 colon): 1.42 µM
GI50 (IGROV1 ovarian): 1.55 µM
TGI (IGROV1 ovarian): 2.94 µM
GI50 (M14 melanoma): 1.49 µM
TGI (M14 melanoma): 2.82 µM
GI50 (U251 glioblastoma): 1.81 µM
TGI (U251 glioblastoma): 3.22 µM
GI50 (HCT-15 colon): 1.58 µM
TGI (HCT-15 colon): 2.97 µM
GI50 (SK-MEL-28 melanoma): 1.75 µM
TGI (SK-MEL-28 melanoma): 3.13 µM
GI50 (LOX IMVI melanoma): 1.74 µM
TGI (LOX IMVI melanoma): 3.14 µM
GI50 (MDA-MB-231 breast): 1.61 µM
TGI (MDA-MB-231 breast): 2.97 µM
GI50 (CCRF-CEM leukemia): 1.8 µM
TGI (CCRF-CEM leukemia): 3.21 µM
GI50 (MDA-MB-468 breast): 1.1 µM
TGI (MDA-MB-468 breast): 2.31 µM
GI50 (COLO 205 colon): 1.79 µM
TGI (COLO 205 colon): 3.19 µM
GI50 (PC-3 prostate): 1.26 µM
TGI (PC-3 prostate): 2.62 µM
GI50 (HCC-2998 colon): 1.43 µM
TGI (HCC-2998 colon): 2.76 µM
GI50 (SF-295 CNS): 1.45 µM
TGI (SF-295 CNS): 2.78 µM
GI50 (HOP-92 NSCLC): 1.65 µM
TGI (HOP-92 NSCLC): 3.02 µM
GI50 (SR leukemia): 1.25 µM
TGI (SR leukemia): 2.52 µM
GI50 (OVCAR-4 ovarian): 1.74 µM
TGI (OVCAR-4 ovarian): 3.19 µM
GI50 (SN12C renal): 1.55 µM
TGI (SN12C renal): 2.91 µM
GI50 (A549 NSCLC): 1.72 µM
TGI (A549 NSCLC): 3.12 µM
GI50 (UACC-257 melanoma): 1.62 µM
TGI (UACC-257 melanoma): 2.98 µM
